Assay results reported in patent US8058227B2, “Method of treating fibrosis in a subject in need thereof comprising administering a composition comprising a CSD” (Medical University of South Carolina, priority 2006, dated 2011).
Entries after “also recorded” stand apart in the source; their conditions may differ. Where no end group is shown, it is not given here.

Experiments:
[1] = system: normal lung fibroblasts (NLF); assay: Kinase (signaling) inhibitor treatment of NLF, Western blotting; assay type: cell-based, human; design: key to Collagen / Tenascin-C / ASMA / Ph-ERK / Ph-JNK / Ph-Akt: a decrease ↓; an increase ↑; no effect —; settings: for ASMA expression / JNK activation / Akt activation / ERK activation / collagen expression / tenascin-C expression: 10 μM inhibitor, result in words; for ASMA / Ph-Akt / Ph-ERK / Ph-JNK / Collagen / Tenascin-C: inhibitor 10 μM, serum-free medium, Western blotting; for ASMA / Ph-Akt / Ph-ERK / Ph-JNK: cell layer; for Collagen / Tenascin-C: culture medium
From the text: (§1) Fibroblasts were derived from lung tissue obtained at autopsy from scleroderma patients (SLF) and from age-, race-, and sex-matched normal subjects (NLF) and cultured as previously described (44). Cells were used in passages 2-4. The group of scleroderma patients fulfilled the criteria of American college of Rheumatology for the diagnosis of scleroderma with lung involvement. Normal human lung tissue was obtained from the Brain and Tissue Bank for Developmental Disorders (Baltimore, Md.) or from the National Disease Research Interchange (Philadelphia, Pa.). Scleroderma lung tissue was obtained from the Division of Pathology and Laboratory Medicine at the Medical University of South Carolina (MUSC). The study was approved by the Institutional Review Board for Human Subject Research at the MUSC.
(§2) U0126 (MEK inhibitor), SP600125 (JNK inhibitor), LY294002 (PI3 kinase inhibitor) and Akt inhibitor VIII were purchased from Calbiochem and dissolved in DMSO (mM). Cells in 6-well plates were treated with 10 μM of inhibitors in serum-free medium for 6 h (U0126) or 24 h for the other inhibitors prior to the harvesting of cells and medium.
(§3) Cell layers were harvested in boiling SDS-PAGE sample buffer; medium was dialyzed, lyophilized, and resuspended in sample buffer. Aliquots of culture medium or of cell layer representing material derived from the same number of cells was probed using the following primary antibodies and appropriate secondary antibodies. Culture medium: goat anti-human collagen I (AB758P) and rabbit anti-human tenascin-C (AB19011) from Chemicon International (Temecula, Calif.). Cell layer: rabbit antibodies against PKCα (sc-208), PKCε (sc-214), activated JNK (sc-12882), activated Akt Thr 308 (sc-166646R) and caveolin-1 (sc-894) from Santa Cruz Biotechnology (Santa Cruz, Calif.); rabbit antibodies against ERK 1/2 (9102), activated ERK 1/2 (9106), JNK (9252), Akt (9272), MEK 1/2 (9122), and activated MEK 1/2 (9121) from Cell Signaling (Beverly, Mass.); mouse monoclonal anti-ASMA (clone 1A4) from Sigma (Saint Louis, Mo.), and mouse monoclonal anti-actin (MAB1501) from Chemicon International (Temecula, Calif.).
(§4) Immunoreactive bands were quantified by densitometry using the Image 1.32J NIH software. For statistical analysis the raw densitometric data were processed and analyzed using the Prism 3.0 (GraphPad Software Inc.) statistical analysis software.

[2] = system: scleroderma lung fibroblasts (SLF); assay: Kinase (signaling) inhibitor treatment of SLF, Western blotting; assay type: cell-based, human; design: key to Collagen / Tenascin-C / ASMA / Ph-ERK / Ph-JNK / Ph-Akt: a decrease ↓; an increase ↑; no effect —; settings: for JNK activation / ASMA expression / Akt activation / ERK activation / collagen expression / tenascin-C expression: 10 μM inhibitor, result in words; for ASMA / Ph-Akt / Ph-ERK / Ph-JNK / Collagen / Tenascin-C: inhibitor 10 μM, serum-free medium, Western blotting; for ASMA / Ph-Akt / Ph-ERK / Ph-JNK: cell layer; for Collagen / Tenascin-C: culture medium
From the text: as §1, §2, §3, §4

[3] = system: normal lung fibroblasts (NLF); assay: Collagen and ASMA expression in NLF treated with CSD and its subdomains; assay type: cell-based, human; settings: for ASMA expression: peptides at 1, 3, and 5 μM
Procedure: (§5) The indicated cell types (NLF and SLF) were cultured as described with 0, 1, 3, or 5 μM of the indicated peptides. Collagen in the medium and ASMA and actin (loading control) in the cell layer were detected by Western blotting. Blots were quantified densitometrically. The level of collagen and ASMA in cells treated with no peptide (divided by the level of actin) was set to 100 arbitrary units. Because SLF express higher levels of collagen and ASMA than do NLF, 100 arbitrary of collagen in SLF is equivalent to 195 arbitrary units of collagen in NLF and 100 arbitrary units of ASMA in SLF is equivalent to 255 arbitrary units of ASMA in NLF. The data presented are the average of the densitometric quantification of three independent experiments.
(§6) To compare the activity of CSD to its subdomains, five subdomains [A (82-88 amino acids), B (89-95), C (96-101), AB (82-95) and BC (89-101)] were synthesized in fusion with the Antennapedia internalization sequence and added to culture medium at 1, 3, and 5 μM. […] Very different results were obtained when examining ASMA expression.

[4] = system: scleroderma lung fibroblasts (SLF); assay: Collagen and ASMA expression in SLF treated with CSD and its subdomains; assay type: cell-based, human; settings: for inhibition of ASMA expression / inhibition of collagen expression: 5 μM peptide; for ASMA expression: peptides at 1, 3, and 5 μM
Procedure: as §5, §6

[5] = system: eNOS; settings: endothelial cells; Bernatchez et al. (4); cited from earlier work
[6] = any concentration tested (1, 3, and 5 μM)

Compound | ASMA expression [1] | JNK activation [1] | ASMA [1] | Ph-Akt [1] | Ph-ERK [1] | Ph-JNK [1] | Collagen [1] | Tenascin-C [1] | JNK activation [2] | ASMA [2] | Ph-Akt [2] | Ph-ERK [2] | Ph-JNK [2] | Collagen [2] | Tenascin-C [2] | ASMA expression [3] | ASMA expression [4] | eNOS activity [5] | further results
O=c1cc(N2CCOCC2)oc2c(-c3ccccc3)cccc12 [LY294002] | no effect | no effect | — | ↓ | ↑ | — | ↓ | ↓ | no effect | ↓ | ↓ | ↑ | — | ↓ | ↓ |  |  |  | 
N#CC(=C(/N)Sc1ccccc1N)/C(C#N)=C(\N)Sc1ccccc1N [Peptide U0126, U0126] | unaffected; also recorded: little or no effect | little or no effect | — | — | ↓ | — | ↓ | ↓ | little or no effect | — | — | ↓ | — | ↓ | ↓ |  |  |  | Akt activation [1]: little or no effect; ERK activation [1]: blocked; collagen expression [1]: blocked; tenascin-C expression [1]: inhibited; also recorded: blocked; ASMA expression [2]: unaffected; also recorded: little or no effect; Akt activation [2]: little or no effect; ERK activation [2]: blocked; collagen expression [2]: blocked; tenascin-C expression [2]: inhibited; also recorded: blocked
BC: CSD subdomain BC (89-101) synthesized in fusion with the Antennapedia internalization sequence (FTTFTVTKYWFYR; also: fused to Antennapedia internalization sequence; UniProt Q03135 89-101, looked up, fragment) |  |  |  |  |  |  |  |  |  |  |  |  |  |  |  | inhibited | inhibited | also inhibited | collagen expression ([3]; 3 μM peptide): completely inhibited; inhibition of ASMA expression ([3]; 5 μM peptide): about 80%; collagen expression ([4]; 3 μM peptide): completely inhibited; inhibition of ASMA expression [4]: about 80%
Oc1c2ccccc2c2c3c(cccc13)N=N2 [SP600125] | no effect |  | — | ↓ | ↓ | ↓ | ↓ | ↓ |  | ↓ | ↓ | ↓ | ↓ | ↓ | ↓ |  |  |  | 
A: CSD subdomain A (82-88 amino acids) synthesized in fusion with the Antennapedia internalization sequence (DGIWKAS; also: fused to Antennapedia internalization sequence; UniProt Q03135 82-88, looked up, fragment) |  |  |  |  |  |  |  |  |  |  |  |  |  |  |  | did not inhibit | did not inhibit |  | collagen expression [3, 6]: did not inhibit; collagen expression [4, 6]: did not inhibit
B: CSD subdomain B (89-95) synthesized in fusion with the Antennapedia internalization sequence (FTTFTVT; also: fused to Antennapedia internalization sequence; UniProt Q03135 89-95, looked up, fragment) |  |  |  |  |  |  |  |  |  |  |  |  |  |  |  | did not inhibit | did not inhibit | most strongly inhibited | collagen expression [3, 6]: did not inhibit; collagen expression [4, 6]: did not inhibit
O=c1[nH]c2ccccc2n1C1CCN(Cc2ccc(-c3nc4cc5[nH]cnc5cc4nc3-c3ccccc3)cc2)CC1 [Akt inhibitor VIII] | no effect | no effect | — | ↓ | ↑ | — | ↓ | ↓ | enhanced | ↓ | ↓ | ↑ | ↑ | — | — |  |  |  | Akt activation [1]: inhibited; ERK activation [1]: enhanced; collagen expression [1]: inhibited; tenascin-C expression [1]: inhibited; ASMA expression [2]: inhibited; Akt activation [2]: inhibited; ERK activation [2]: enhanced; collagen expression [2]: no effect; tenascin-C expression [2]: no effect
C: CSD subdomain C (96-101) synthesized in fusion with the Antennapedia internalization sequence (KYWFYR; also: fused to Antennapedia internalization sequence; UniProt Q03135 96-101, looked up, fragment) |  |  |  |  |  |  |  |  |  |  |  |  |  |  |  |  | inhibited |  | inhibition of collagen expression ([3]; 5 μM peptide): approximately 50%; inhibition of ASMA expression [4]: approximately 50%; inhibition of collagen expression [4]: approximately 50%
AB: CSD subdomain AB (82-95) synthesized in fusion with the Antennapedia internalization sequence (DGIWKASFTTFTVT; also: fused to Antennapedia internalization sequence; UniProt Q03135 82-95, looked up, fragment) |  |  |  |  |  |  |  |  |  |  |  |  |  |  |  | did not inhibit | did not inhibit | also inhibited | inhibition of collagen expression ([3]; 5 μM peptide): approximately 50%; inhibition of collagen expression [4]: approximately 50%
